Test results from patent publication US20220249599A1, “TREATMENT OF IMPLANTS WITH ENGINEERED ANTIMICROBIAL AMPHIPHILIC PEPTIDES” (priority 2018, published 2022).
Several values for one entry are separate records, joined by “and”; a condition that tells them apart may be missing. Identical values can stand only once. Like-named read-outs stand apart in the source and are kept apart here. Marks after values point to notes of the source that are not given here. Ends that are not written are not given here.

Tests used:
[1] = test system: Pseudomonas aeruginosa (n = 109); format: cell-based; conditions: P. aeruginosa colistin-resistant (COL^R) isolates, n 8
Method: (§1) The clinical isolates were obtained from USA hospitals. […] Plates were incubated at 35° C. overnight.

[2] = test system: Klebsiella pneumoniae (n = 101); format: cell-based
Method: as §1

[3] = test system: Acinetobacter spp. (n = 104); format: cell-based
Method: as §1

[4] = test system: Escherichia coli (n = 101); format: cell-based; conditions: n = 101
Method: as §1

[5] = test system: Enterococcus faecium (n = 104); assay: microbe, parasite or virus in culture; conditions: n = 104
Method: Comparator antibiotics were supplied by Micromyx, and stock solutions were prepared on the first day of testing using solvents recommended by CLSI (1). Stock solutions of all compounds were made at 40× the final testing concentration and stored at −80° C. prior to testing. Information regarding compound source, catalog and lot number, testing concentrations and drug diluent for the comparators and test agent are detailed below in Table 3.
The test organisms evaluated in this study consisted of clinical isolates from the Micromyx Repository and reference isolates from the American Type Culture Collection (ATCC; Manassas, Va.). The clinical isolates were obtained from USA hospitals. Upon initial receipt at Micromyx, the organisms were sub-cultured onto an appropriate agar medium. Following incubation, colonies were harvested from these plates and cell suspensions prepared and frozen at −80° C. with a cryoprotectant. Prior to testing, the isolates were streaked from frozen vials onto Trypticase Soy Agar with 5% sheep blood (Becton Dickenson [BD]; Sparks, MD; Lot Nos. 7173618, 7166759, 7208688, 72144895, 7228505 and Remel Lenexa, Kans. Lot No. 212574). Plates were incubated at 35° C. overnight.
Mueller Hinton II broth (MHB II; BD; Lot Nos. 6258541 and 7143896) was used for MIC testing of aerobic organisms.
MIC values were determined using a broth microdilution procedure described by CLSI (1, 3). Automated liquid handlers (Multidrop 384, Labsystems, Helsinki, Finland; Biomek 2000 and Biomek FX, Beckman Coulter, Fullerton Calif.) were used to conduct serial dilutions and liquid transfers.
To prepare the drug mother plates, which would provide the serial drug dilutions for the replicate daughter plates, the wells of columns 2-12 of standard 96-well microdilution plates (Costar 3795) were filled with 150 µl of the designated diluent for each row of drug. The test articles and comparator compounds ([…] at 40× the highest concentration to be tested) were dispensed into the appropriate wells in column 1. The Biomek 2000 was then used to make 2-fold serial dilutions in the mother plates from column 1 through column 11. The wells of Column 12 contained no drug and served as the organism growth control wells for the assay.
The daughter plates were loaded with […] per well of MHB II using the Multidrop 384. The daughter plates were completed on the Biomek FX instrument which transferred 5 µL of drug solution from each well of a mother plate to the corresponding well of each daughter plate in a single step. A standardized inoculum of each test organism was prepared per CLSI methods (1). The inoculum for each organism was dispensed into sterile reservoirs divided by length (Beckman Coulter), and the Biomek 2000 was used to inoculate the plates. Daughter plates were placed on the Biomek 2000 work surface in reverse orientation so that inoculation took place from low to high drug concentration.
Plates were stacked 3-4 high, covered with a lid on the top plate, placed in plastic bags, and incubated at 35° C. for 16 to 20 hrs. Following incubation, the microplates were removed from the incubator and viewed from the bottom using a plate viewer. […] The MIC was read and recorded as the lowest concentration of drug that inhibited visible growth of the organism.
Clinical breakpoints to determine percent resistance within a given organism group were obtained from CLSI (3), with the exception of colistin for K. pneumoniae, Enterobacter spp., and E. coli, which are only available from EUCAST.

[6] = test system: Enterobacter spp. (n = 102); format: cell-based, Enterobacter aerogenes and E. cloacae
Method: as §1

[7] = monkey
Method: Animals will be obtained from the Test Facility's colony of adult male cynomolgous monkeys (Macaca fascicularis) of Chinese origin. Animals will be weighed prior to dosing.
Intravenous administration will be via 30 minute infusion into a temporary percutaneous catheter placed into a saphenous vein. Prior to and following dose administration, the catheter will be flushed with 0.5 mL saline prior to removal. All dosing syringes will be weighed prior to and following dosing.
Serial blood samples will be collected via femoral vein (cephalic or saphenous, as necessary). Approximately 1 mL blood samples will be collected into K2EDTA tubes.
Blood samples will be collected into K2EDTA tubes and stored on wet ice. Whole blood will be processed to plasma by centrifugation (2400-2700 rpm at 5° C.) within 30 minutes of collection. Plasma samples will be split into 2 equal aliquots and stored at −80° C. until analysis.
Prior to extraction, a known concentration of a mass-adjusted internal standard (IS) will be added to assess recovery and allow for quantitation. Purified samples will be further subjected to high-performance liquid chromatography (HPLC) using C18 300 or 130 angstrom columns prior to MS/MS analysis. Multiple charge states will be observed by MS, so MS/MS will be employed to enable multiple reaction monitoring (MRM) analyses to determine the most MRM transitions with the highest signal-to-noise gain. Compound plasma concentrations will be determined by comparing to and compensating with co-purified IS peak intensity and validated calibrated standard curves.
Toxicokinetic parameters will be calculated using non-compartmental methods as implemented in the Phoenix® WinNonlin® ver. 6.3 comprehensive TK/PK analysis software program (Pharsight Corporation; Mountain View, Calif.) using an IV infusion model. Toxicokinetic analysis will be conducted using a 30-minute intravenous infusion time. Therefore, 30 minutes will be added to each sample time point postdose to obtain nominal time for TK analysis. Nominal times and dosage levels will be used for all calculations. Values below the lower limit of quantitation (BLQ) will be assigned a value of zero for the toxicokinetic calculations. Microsoft® Excel® 2013 will be used for receipt of bioanalytical data, minor formatting, including setting BLQ values to “0”, transfer into WinNonlin® for TK analysis, and calculation of the mean when an approximated value will be excluded. All plasma concentration data from all animals will be included in the analysis.

[8] = IV infusion 1 mg/kg, individual animals
[9] = IV infusion 3 mg/kg, individual animals
[10] = IV infusion 10 mg/kg, individual animals
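Wherever AUC0-24hr is given: adult male cynomolgus monkeys given a 30-min IV infusion, plasma drug levels quantified by LC-MS/MS against internal standard, parameters from non-compartmental IV infusion model analysis.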
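Wherever AUCinf Extrapolated is given: adult male cynomolgus monkeys given a 30-min IV infusion, plasma drug levels quantified by LC-MS/MS against internal standard, parameters from non-compartmental IV infusion model analysis.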
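Wherever AUCinf is given: adult male cynomolgus monkeys given a 30-min IV infusion, plasma drug levels quantified by LC-MS/MS against internal standard, parameters from non-compartmental IV infusion model analysis.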
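Wherever AUClast is given: adult male cynomolgus monkeys given a 30-min IV infusion, plasma drug levels quantified by LC-MS/MS against internal standard, parameters from non-compartmental IV infusion model analysis.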

RRWVRRVRRVWRRVVRVVRRWVRR-NH2 (C-terminus assumed) [SEQ ID NO: 1]
MIC90 [1]: 16 µg/mL
MIC90 ([2]; K. pneumoniae colistin-resistant (COL^R) isolates, n 28): 16 µg/mL
Mode (MIC) ([2]; n = 101): 8 µg/mL
MIC90 [3]: 4 µg/mL
Mode (MIC) [3]: 4 µg/mL
MIC90 ([3]; Acinetobacter colistin-resistant (COL^R) isolates, n 21): 16 µg/mL
MIC90 [4]: 4 µg/mL
Mode (MIC) [4]: 2 µg/mL
MIC50 [5]: 0.5 µg/mL
MIC90 [5]: 1 µg/mL
MIC range [5]: 0.25 to 2 µg/mL
Mode (MIC) [5]: 1 µg/mL
Mode (MIC) [6]: 16 µg/mL
AUC0-24hr ([7]; IV infusion 1 mg/kg, Mean): 1090 ng·h/mL
AUCinf ([7]; IV infusion 1 mg/kg, Mean): 1170 ng·h/mL
AUCinf Extrapolated ([7]; IV infusion 1 mg/kg, Mean): 10.0%
AUClast ([7]; IV infusion 1 mg/kg, Mean): 983 ng·h/mL
Cmax ([7]; IV infusion 1 mg/kg, Mean): 1710 ng/mL
Dose Normalized AUClast ([7]; IV infusion 1 mg/kg, Mean): 983
Dose Normalized Cmax ([7]; IV infusion 1 mg/kg, Mean): 1710
T1/2 ([7]; IV infusion 1 mg/kg, Mean): 2 h
Vss ([7]; IV infusion 1 mg/kg, Mean): 1380 mL/kg
AUC0-24hr [7, 8]: 821 ng·h/mL and 1820 ng·h/mL and 616 ng·h/mL
AUCinf [7, 8]: 938* hr*ng/mL and 1730 hr*ng/mL and 610 hr*ng/mL
AUClast [7, 8]: 740 ng·h/mL and 1610 ng·h/mL and 595 ng·h/mL
CL [7, 8]: 1070* mL/hr/kg and 579 mL/hr/kg and 1640 mL/hr/kg
Cmax [7, 8]: 1460 ng/mL and 2660 ng/mL and 997 ng/mL
Dose Normalized AUClast [7, 8]: 740 and 1610 and 595
Dose Normalized Cmax [7, 8]: 1460 and 2660 and 997
Tmax [7, 8]: 2 min
Vss [7, 8]: 1530* mL/kg and 1260 mL/kg and 1510 mL/kg
AUC0-24hr ([7]; IV infusion 3 mg/kg, Mean): 7580 ng·h/mL
AUCinf ([7]; IV infusion 3 mg/kg, Mean): 7710 ng·h/mL
AUCinf Extrapolated ([7]; IV infusion 3 mg/kg, Mean): 1.5%
AUClast ([7]; IV infusion 3 mg/kg, Mean): 7580 ng·h/mL
Cmax ([7]; IV infusion 3 mg/kg, Mean): 10300 ng/mL
Dose Normalized AUClast ([7]; IV infusion 3 mg/kg, Mean): 2530
Dose Normalized Cmax ([7]; IV infusion 3 mg/kg, Mean): 3450
T1/2 ([7]; IV infusion 3 mg/kg, Mean): 5.2 h
Vss ([7]; IV infusion 3 mg/kg, Mean): 1290 mL/kg
AUC0-24hr [7, 9]: 6650 ng·h/mL and 11000 ng·h/mL and 5120 ng·h/mL
AUCinf [7, 9]: 6730 ng·h/mL and 11200 ng·h/mL and 5180 ng·h/mL
AUCinf Extrapolated [7, 9]: 1.2% and 2.3% and 1.1%
AUClast [7, 9]: 6650 ng·h/mL and 11000 ng·h/mL and 5120 ng·h/mL
CL [7, 9]: 446 mL/h/kg and 267 mL/h/kg and 580 mL/h/kg
Cmax [7, 9]: 6830 ng/mL and 15500 ng/mL and 8690 ng/mL
Dose Normalized AUClast [7, 9]: 2220 and 3660 and 1710
Dose Normalized Cmax [7, 9]: 2280 and 5170 and 2900
T1/2 [7, 9]: 4.4 h and 6.3 h and 5 h
Tmax [7, 9]: 2 min and 1.5 min
Vss [7, 9]: 1580 mL/kg and 905 mL/kg and 1370 mL/kg
AUC0-24hr ([7]; IV infusion 10 mg/kg, Mean): 50300 ng·h/mL
AUCinf ([7]; IV infusion 10 mg/kg, Mean): 50800 ng·h/mL
AUCinf Extrapolated ([7]; IV infusion 10 mg/kg, Mean): 1.3%
AUClast ([7]; IV infusion 10 mg/kg, Mean): 50300 ng·h/mL
Cmax ([7]; IV infusion 10 mg/kg, Mean): 38200 ng/mL
Dose Normalized AUClast ([7]; IV infusion 10 mg/kg, Mean): 5030
Dose Normalized Cmax ([7]; IV infusion 10 mg/kg, Mean): 3820
T1/2 ([7]; IV infusion 10 mg/kg, Mean): 4.6 h
Vss ([7]; IV infusion 10 mg/kg, Mean): 1260 mL/kg
AUCinf Extrapolated [7, 10]: 1.0% and 1.8% and 0.99%
Cmax [7, 10]: 26000 ng/mL and 24300 ng/mL and 64300 ng/mL
Dose Normalized Cmax [7, 10]: 2600 and 2430 and 6430
T1/2 [7, 10]: 4.3 h and 4.9 h and 4.6 h
Tmax [7, 10]: 2 min
